# In patent US9549941B2, “Compositions and methods for treating hepatitis C virus” (priority 2011, dated 2017):
# Assays:
# HCV GT2 or GT3 = assay: ELECTRON Phase 2a clinical study, treatment-naive GT2/GT3 (Groups 1-6, 10); assay type: in vivo, human; conditions: for HCV RNA (log10 IU/mL), mean: GT2/GT3 Tx-naive, N=10; for HCV RNA below LOD, %: Genotype 2/3 Treatment Naive (Groups 1-6); for % < LOD / n/N < LOD: Groups 1-5, GT2/GT3 Tx-naive
# Experimental: In comparison, only 60% of treatment-naïve GT2/GT3 HCV patients receiving GS-7977 monotherapy achieved SVR-12.
# Group 1: GS-7977 (400 mg QD) with RBV (1000/1200 mg BID) for 12 weeks (no peginterferon) (GT2/GT3 treatment-naïve); and
# Groups 2, 3, 4: GS-7977 (400 mg QD) with RBV (1000/1200 mg BID) for 12 weeks and PEG (180 μg weekly) weeks 1-4 only/PEG (180 μg weekly) weeks 1-8 only/PEG (180 μg weekly) weeks 1-12 (GT2/GT3 treatment-naïve).
# In Part 2 of the ELECTRON trial, an additional 30 patients were enrolled in exploratory regimens of GS-7977 monotherapy and abbreviated durations of total therapy with the combination of GS-7977, RBV and PEG:
# Group 5: GS-7977 (400 mg QD) monotherapy for 12 weeks (GT2/GT3 treatment-naïve);
# Group 6: GS-7977 (400 mg QD) with PEG (180 μg weekly) and RBV (1000/1200 mg BID) for 8 weeks (GT2/GT3 treatment-naïve); and
# Group 10: GS-7977 (400 mg QD) with RBV (1000/1200 mg BID) for 8 weeks (GT2/GT3 treatment-naïve); and […]
# [1] = tested on: 1b con-1-based chimeric replicon containing 4a NS5B S282T; assay type: cell-based, hepatitis C virus; conditions: genotype 4a, S282T from corresponding wild-type
# Experimental: (§1) (Lam et al., J. Virology (2011) 85(23): 12334-12342; Lam et al., Antimicrob. Agents Chemother. (2012) 56(6): 3359-3368.) S282T mutations in NS5B were created by site-directed mutagenesis in 1a-H77, 1b con-1, and 2a JFH1 sub-genomic replicons. 1b con-1-based chimeric replicons containing 2b, 3a, 4a, 5a, or 6a NS5B were also engineered to harbor the S282T mutation. […] Relative percentages of mutant and WT were assessed by deep sequencing.
# [2] = tested on: 1b con-1-based chimeric replicon containing 3a NS5B S282T; assay type: cell-based, hepatitis C virus; conditions: genotype 3a, S282T from corresponding wild-type
# Experimental: as §1
# [3] = tested on: 1b con-1-based chimeric replicon containing 5a NS5B S282T; assay type: cell-based, hepatitis C virus; conditions: genotype 5a, S282T from corresponding wild-type
# Experimental: as §1
# [4] = tested on: 2a JFH1 sub-genomic replicon, NS5B S282T; assay type: cell-based, hepatitis C virus; conditions: genotype 2a, S282T from corresponding wild-type
# Experimental: as §1
# [5] = tested on: 1b con-1 sub-genomic replicon, NS5B S282T; assay type: cell-based, hepatitis C virus; conditions: genotype 1b, S282T from corresponding wild-type
# Experimental: as §1
# [6] = ELECTRON adverse events (Groups 1,7,8,9 N=70; Groups 2,3,4 N=30; Group 5 N=10; Group 6 N=10); assay type: in vivo, human; conditions: subjects with event
smiles,measurement,setting,value
"CC(C)OC(=O)[C@H](C)N[P@](=O)(OC[C@H]1O[C@@H](n2ccc(=O)[nH]c2=O)[C@](C)(F)[C@@H]1O)Oc1ccccc1 [GS-7977, (S)-isopropyl 2-(((S)-(((2R,3R,4R,5R)-5-(2,4-dioxo-3,4-dihydropyrimidin-1(2H)-yl)-4-fluoro-3-hydroxy-4-methyltetrahydrofuran-2-yl)methoxy)(phenoxy)phosphoryl)amino)propanoate]","HCV RNA (log10 IU/mL), mean",HCV GT2 or GT3; D1,5.74 log10 IU/mL
same,"HCV RNA (log10 IU/mL), mean",HCV GT2 or GT3; D1 (6 hr) after dosing,5.63 log10 IU/mL
same,"HCV RNA (log10 IU/mL), mean",HCV GT2 or GT3; D1 (12 hr) after dosing,4.98 log10 IU/mL
same,"HCV RNA (log10 IU/mL), mean",HCV GT2 or GT3; D2,3.75 log10 IU/mL
same,"HCV RNA (log10 IU/mL), mean",HCV GT2 or GT3; D3,2.62 log10 IU/mL
same,"HCV RNA (log10 IU/mL), mean",HCV GT2 or GT3; T = 0 (initial screening values),6.08 log10 IU/mL
same,"HCV RNA (log10 IU/mL), mean",HCV GT2 or GT3; W1,1.56 log10 IU/mL
same,"HCV RNA (log10 IU/mL), mean",HCV GT2 or GT3; W2,1.22 log10 IU/mL
same,"HCV RNA (log10 IU/mL), mean",HCV GT2 or GT3; W3,1.15 log10 IU/mL
same,"HCV RNA (log10 IU/mL), mean",HCV GT2 or GT3; W4,1.15 log10 IU/mL
same,"HCV RNA (log10 IU/mL), mean",HCV GT2 or GT3; W5,1.15 log10 IU/mL
same,"HCV RNA (log10 IU/mL), mean",HCV GT2 or GT3; W6,1.15 log10 IU/mL
same,"HCV RNA (log10 IU/mL), mean",HCV GT2 or GT3; W7,1.15 log10 IU/mL
same,"HCV RNA (log10 IU/mL), mean",HCV GT2 or GT3; W8,1.15 log10 IU/mL
same,"HCV RNA (log10 IU/mL), mean",HCV GT2 or GT3; W9,1.15 log10 IU/mL
same,"HCV RNA (log10 IU/mL), mean",HCV GT2 or GT3; W10,1.15 log10 IU/mL
same,"HCV RNA (log10 IU/mL), mean",HCV GT2 or GT3; W11,1.15 log10 IU/mL
same,"HCV RNA (log10 IU/mL), mean",HCV GT2 or GT3; W12 (end of treatment),1.15 log10 IU/mL
same,"HCV RNA (log10 IU/mL), mean",HCV GT2 or GT3; W14 (after 12-week treatment),1.66 log10 IU/mL
same,"HCV RNA (log10 IU/mL), mean",HCV GT2 or GT3; W16 (after 12-week treatment),2.95 log10 IU/mL
same,"HCV RNA (log10 IU/mL), mean",HCV GT2 or GT3; W20 (after 12-week treatment),3.12 log10 IU/mL
same,"HCV RNA (log10 IU/mL), mean",HCV GT2 or GT3; W24 (12 weeks after treatment),3.17 log10 IU/mL
same,"HCV RNA below LOD, %",HCV GT2 or GT3; SVR-4,(60) %
same,"HCV RNA below LOD, %",HCV GT2 or GT3; SVR-12,(60) %
same,"HCV RNA below LOD, %",HCV GT2 or GT3; Time 1 wk,(50) %
same,"HCV RNA below LOD, %",HCV GT2 or GT3; Time 2 wks,(80) %
same,"HCV RNA below LOD, %",HCV GT2 or GT3; Time 3 wks,(100) %
same,"HCV RNA below LOD, %",HCV GT2 or GT3; Time 4 wks,(100) %
same,"HCV RNA below LOD, %",HCV GT2 or GT3; Time 8 wks,(100) %
same,"HCV RNA below LOD, %",HCV GT2 or GT3; Time 12 wks,(100) %
same,% < LOD,HCV GT2 or GT3; SVR-4,60%
same,n/N < LOD,HCV GT2 or GT3; SVR-4,6/10
same,% < LOD,HCV GT2 or GT3; SVR-8,60%
same,n/N < LOD,HCV GT2 or GT3; SVR-8,6/10
same,% < LOD,HCV GT2 or GT3; SVR-12,60%
same,n/N < LOD,HCV GT2 or GT3; SVR-12,6/10
same,% < LOD,HCV GT2 or GT3; SVR-24,60%
same,n/N < LOD,HCV GT2 or GT3; SVR-24,6/10
same,% < LOD,HCV GT2 or GT3; Time 0 wks,0%
same,% < LOD,HCV GT2 or GT3; Time 4 wks,100%
same,n/N < LOD,HCV GT2 or GT3; Time 4 wks,10/10
same,% < LOD,HCV GT2 or GT3; Time 8 wks,100%
same,n/N < LOD,HCV GT2 or GT3; Time 8 wks,10/10
same,% < LOD,HCV GT2 or GT3; Time 12 wks,100%
same,n/N < LOD,HCV GT2 or GT3; Time 12 wks,10/10
same,SVR-24,"HCV GT2 or GT3; treatment-naive GT2/GT3, 12 weeks GS-7977 400 mg QD",60%
same,SVR-12,"HCV GT2 or GT3; treatment-naive GT2/GT3 HCV patients, GS-7977 400 mg QD",60%
same,Fold Change,[1],6.1
same,Fold Change,[2],3.5
same,Fold Change,[3],14.35
same,Fold Change,[4],2.4
same,Fold Change,[5],8.8
same,Abdominl Pain: n,[6],0
same,Alopecia: n,[6],0
same,Anemia: n,[6],0
same,Arthralgia: n,[6],0
same,Axillary Pain: %,[6],(20) %
same,Axillary Pain: n,[6],2
same,Back Pain: %,[6],(10) %
same,Back Pain: n,[6],1
same,Blood and Lymphatic System Disorders: n,[6],0
same,Chills: n,[6],0
same,Decreased Appetite: n,[6],0
same,Diarrhoea: n,[6],0
same,Dizziness Postural: n,[6],0
same,Dizziness: %,[6],(20) %
same,Dizziness: n,[6],2
same,Dry Skin: n,[6],0
same,Dyspnoea: n,[6],0
same,Fatigue: %,[6],(30) %
same,Fatigue: n,[6],3
same,Flatulence: n,[6],0
same,Gastrointestinal Disorders: %,[6],(80) %
same,Gastrointestinal Disorders: n,[6],8
same,General Disorders and Administration Site Conditions: %,[6],(80) %
same,General Disorders and Administration Site Conditions: n,[6],8
same,Headache: %,[6],(80) %
same,Headache: n,[6],8
same,Infections and Infestations: %,[6],(50) %
same,Infections and Infestations: n,[6],5
same,Injection Site Erythema: n,[6],0
same,Insomnia: %,[6],(60) %
same,Insomnia: n,[6],6
same,Irritability: %,[6],(10) %
same,Irritability: n,[6],1
same,Metabolism and Nutrition Disorders: n,[6],0
same,Musculoskeletal and Connective Tissue Disorders: %,[6],(20) %
same,Musculoskeletal and Connective Tissue Disorders: n,[6],2
same,Myalgia: %,[6],(10) %
same,Myalgia: n,[6],1
same,Nausea: %,[6],(30) %
same,Nausea: n,[6],3
same,Nervous System Disorders: %,[6],(90) %
same,Nervous System Disorders: n,[6],9
same,Oropharyngeal Pain: %,[6],(20) %
same,Oropharyngeal Pain: n,[6],2
same,Pain: n,[6],0
same,Pruritus: n,[6],0
same,Psychiatric Disorders: %,[6],(60) %
same,Psychiatric Disorders: n,[6],6
same,Pyrexia: n,[6],0
same,Rash: %,[6],(10) %
same,Rash: n,[6],1
same,"Respiratory, Thoracic and Mediastinal Disorders: %",[6],(30) %
same,"Respiratory, Thoracic and Mediastinal Disorders: n",[6],3
same,Skin and Subcutaneous Tissue Disorders: %,[6],(30) %
same,Skin and Subcutaneous Tissue Disorders: n,[6],3
same,Upper Respiratory Tract Infection: %,[6],(20) %
same,Upper Respiratory Tract Infection: n,[6],2
same,≧1 AE: %,[6],(100) %
same,≧1 AE: n,[6],10
